Patent US11701434B2, “Tertiary amino lipidated cationic peptides for nucleic acid delivery” (Nutcracker Therapeutics, Inc., priority 2018, dated 2023)

Legend:
[1] = mRNA encapsulation by Qubit RNA HS dye fluorescence before and after Triton X-100 lysis; format: physicochemical; conditions: Fluc mRNA/peptoid formulation, 5:1 mass ratio peptoid:cargo
Protocol: (§1) In standard formulations, the tertiary amino lipidated and/or PEGylated cationic peptide compound is dissolved in anhydrous ethanol at a concentration of 0.5 mg/mL (for in vitro experiments) or 5 mg/mL (for in vivo experiments). The resulting solutions are stable at room temperature, but should be stored at −20° C. The nucleic acid cargo is dissolved in DNAse or RNAse-free water at a final concentration of 0.2 mg/mL (for in vitro experiments) or 1 mg/mL (for in vivo experiments). These solutions should be stored at −20° C. or at −78° C. for longer time periods. To prepare nanoparticle formulations, the tertiary amino lipidated and/or PEGylated cationic peptide compound is mixed by pipetting with nucleic acid at a mass ratio between approximately 1:1 (peptide compound:cargo) and 20:1. Prior to formulation, tertiary amino lipidated and/or PEGylated cationic peptide compounds and cargo (such as nucleic acid) are diluted in ethanol and acidic buffer (PBS adjusted to pH 5.5 with 0.1 M HCl) respectively to a volume ratio of 1:3 and to target a final cargo concentration of approximately 0.05 mg/mL to 0.2 mg/mL. The exemplary amino lipidated cationic peptoids 1-36 described in Example 2 were combined with firefly luciferase (Flue) mRNA to form nanoparticle compositions to be evaluated for therapeutic and/or prophylactic purposes in vitro or in vivo. The formulations were prepared according to the protocol of Example 3 and mixed by simple pipetting. The mRNA/peptoid formulation at a 5:1 mass ratio of peptoid:cargo were evaluated by dynamic light scattering (DLS) in order to determine the volume average particle size/diameter (nm) of the mRNA/peptoid complex and the size polydispersity index (PDI) within the formulation. The percentage of mRNA encapsulation for each formulation of the exemplary compounds were determined by fluorescence of the Qubit RNA HS (Invitrogen) dye before and after lysis of particles by Triton X-100.

[2] = Dynamic light scattering (DLS) of Fluc mRNA/peptoid formulations: particle size and polydispersity; format: physicochemical; conditions: 5:1 mass ratio peptoid:cargo; for Size (volume average particle size/diameter): Fluc mRNA/peptoid complex; for Size PDI (size polydispersity index): Fluc mRNA/peptoid formulation
Protocol: as §1

| % Encapsulation (percentage of mRNA encapsulation) [1] [%] | Size (volume average particle size/diameter) [2] [nm] | Size PDI (size polydispersity index) [2] | SMILES |
| --- | --- | --- | --- |
| 90.1 | 356.9 | 0.047 | CCCCCCCCN(CC(N)=O)C(=O)CN(CCCCCCCC)C(=O)CN(CCc1ccccc1)C(=O)CN(CCc1ccccc1)C(=O)CN(CCN)C(=O)CN(CCc1ccccc1)C(=O)CN(CCc1ccccc1)C(=O)CN(CCN)C(=O)CN(CCc1ccccc1)C(=O)CN(CCc1ccccc1)C(=O)CNCCN [Compound 1] |
| 100.3 | 150 | 0.128 | CCCCCCCCCCN(CC(N)=O)C(=O)CN(CCCCCCCCCC)C(=O)CN(CCc1ccccc1)C(=O)CN(CCc1ccccc1)C(=O)CN(CCN)C(=O)CN(CCc1ccccc1)C(=O)CN(CCc1ccccc1)C(=O)CN(CCN)C(=O)CN(CCc1ccccc1)C(=O)CN(CCc1ccccc1)C(=O)CNCCN [Compound 2] |
| 95.9 | 255.3 | 0.247 | CCCCCCCCCCCCN(CC(N)=O)C(=O)CN(CCCCCCCCCCCC)C(=O)CN(CCc1ccccc1)C(=O)CN(CCc1ccccc1)C(=O)CN(CCN)C(=O)CN(CCc1ccccc1)C(=O)CN(CCc1ccccc1)C(=O)CN(CCN)C(=O)CN(CCc1ccccc1)C(=O)CN(CCc1ccccc1)C(=O)CNCCN [Compound 3] |
| 99.0 | 326.7 | 0.191 | CCCCCCCCCCCCN(CC(N)=O)C(=O)CN(CCCCCCCCCCCC)C(=O)CN(CCc1ccc(OC)cc1)C(=O)CN(CCc1ccc(OC)cc1)C(=O)CN(CCN)C(=O)CN(CCc1ccc(OC)cc1)C(=O)CN(CCc1ccc(OC)cc1)C(=O)CN(CCN)C(=O)CN(CCc1ccc(OC)cc1)C(=O)CN(CCc1ccc(OC)cc1)C(=O)CNCCN [Compound 4] |
| 88.3 | 364.7 | 0.308 | CCCCCCCCCCCCCCCCCCN(CC(N)=O)C(=O)CN(CCCCCCCCCCCCCCCCCC)C(=O)CN(CCc1ccccc1)C(=O)CN(CCc1ccccc1)C(=O)CN(CCN)C(=O)CN(CCc1ccccc1)C(=O)CN(CCc1ccccc1)C(=O)CN(CCN)C(=O)CN(CCc1ccccc1)C(=O)CN(CCc1ccccc1)C(=O)CNCCN [Compound 5] |
| 92.4 | 448.6 | 0.348 | CCCCCCCCCCN(CC(N)=O)C(=O)CN(CCc1ccccc1)C(=O)CN(CCc1ccccc1)C(=O)CN(CCN)C(=O)CN(CCc1ccccc1)C(=O)CN(CCc1ccccc1)C(=O)CN(CCN)C(=O)CN(CCc1ccccc1)C(=O)CN(CCc1ccccc1)C(=O)CNCCN [Compound 6] |
| 88.4 | 296.7 | 0.177 | CCCCCCCCCCN(CC(N)=O)C(=O)CN(CCCCCCCCCC)C(=O)CN(CCCCCCCCCC)C(=O)CN(CCc1ccccc1)C(=O)CN(CCc1ccccc1)C(=O)CN(CCN)C(=O)CN(CCc1ccccc1)C(=O)CN(CCc1ccccc1)C(=O)CN(CCN)C(=O)CN(CCc1ccccc1)C(=O)CN(CCc1ccccc1)C(=O)CNCCN [Compound 7] |
| 73.9 | 367.9 | 0.122 | CCCCCCCCCCN(CC(N)=O)C(=O)CN(CCCCCCCCCC)C(=O)CN(CCc1ccccc1)C(=O)CN(CCc1ccccc1)C(=O)CNCCN [Compound 9] |
| 92.6 | 157 | 0.009 | CCCCCCCCCCN(CC(N)=O)C(=O)CN(CCCCCCCCCC)C(=O)CN(CCc1ccccc1)C(=O)CN(CCc1ccccc1)C(=O)CN(CCN)C(=O)CN(CCc1ccccc1)C(=O)CN(CCc1ccccc1)C(=O)CNCCN [Compound 10] |
| 87.8 | 354.9 | 0.038 | CCCCCCCCCCN(CC(N)=O)C(=O)CN(CCCCCCCCCC)C(=O)CN(CCc1ccccc1)C(=O)CN(CCc1ccccc1)C(=O)CN(CCN)C(=O)CN(CCc1ccccc1)C(=O)CN(CCc1ccccc1)C(=O)CN(CCN)C(=O)CN(CCc1ccccc1)C(=O)CN(CCc1ccccc1)C(=O)CN(CCN)C(=O)CN(CCc1ccccc1)C(=O)CN(CCc1ccccc1)C(=O)CNCCN [Compound 11] |
| 90.4 | 822.6 | 0.447 | CCCCCCCCCCN(CC(N)=O)C(=O)CN(CCCCCCCCCC)C(=O)CN(CCc1ccccc1)C(=O)CN(CCN)C(=O)CN(CCc1ccccc1)C(=O)CN(CCN)C(=O)CN(CCc1ccccc1)C(=O)CNCCN [Compound 13] |
| 77.3 | 554 | 0.233 | CCCCCCCCCCN(CC(N)=O)C(=O)CN(CCCCCCCCCC)C(=O)CN(CCN)C(=O)CN(CCN)C(=O)CNCCN [Compound 14] |
| 76.9 | 1064 | 1 | CCCCCCCCCCN(CC(N)=O)C(=O)CN(CCCCCCCCCC)C(=O)CN(CCN)C(=O)CN(CCN)C(=O)CN(CCN)C(=O)CN(CCN)C(=O)CNCCN [Compound 15] |
| 85.4 | 1486 | 1 | CCCCCCCCCCN(CC(N)=O)C(=O)CN(CCCCCCCCCC)C(=O)CN(CCN)C(=O)CN(CCN)C(=O)CN(CCN)C(=O)CN(CCN)C(=O)CN(CCN)C(=O)CN(CCN)C(=O)CN(CCN)C(=O)CN(CCN)C(=O)CNCCN [Compound 16] |
| 90.3 | 472.8 | 0.37 | CCCCCCCCCCN(CC(=O)N(CCN)CC(=O)N(CCc1ccccc1)CC(=O)N(CCc1ccccc1)CC(=O)N(CCCCCCCCCC)CC(=O)N(CCN)CC(=O)N(CCc1ccccc1)CC(=O)N(CCc1ccccc1)CC(N)=O)C(=O)CN(CCc1ccccc1)C(=O)CN(CCc1ccccc1)C(=O)CNCCN [Compound 17] |
| 88.5 | 593 | 0.762 | CCCCCCCCCCNCC(=O)N(CCN)CC(=O)N(CCc1ccccc1)CC(=O)N(CCc1ccccc1)CC(=O)N(CCN)CC(=O)N(CCc1ccccc1)CC(=O)N(CCc1ccccc1)CC(=O)N(CCN)CC(=O)N(CCc1ccccc1)CC(=O)N(CCc1ccccc1)CC(=O)N(CCCCCCCCCC)CC(N)=O [Compound 18] |
| 72.2 | 326.6 | 0.37 | CCCCCCCCCCN(CC(N)=O)C(=O)CN(CCCCCCCCCC)C(=O)CN(CCCCCCCCCC)C(=O)CN(CCCCCCCCCC)C(=O)CN(CCCCCCCCCC)C(=O)CN(CCc1ccccc1)C(=O)CN(CCc1ccccc1)C(=O)CN(CCN)C(=O)CN(CCc1ccccc1)C(=O)CN(CCc1ccccc1)C(=O)CNCCN [Compound 20] |
| 65.4 | 748.2 | 0.538 | CCCCCCCCCCN(CC(N)=O)C(=O)CN(CCCCCCCCCC)C(=O)CN(CCCCCCCCCC)C(=O)CN(CCCCCCCCCC)C(=O)CN(CCCCCCCCCC)C(=O)CN(CCCCCCCCCC)C(=O)CN(CCc1ccccc1)C(=O)CN(CCc1ccccc1)C(=O)CN(CCN)C(=O)CN(CCc1ccccc1)C(=O)CN(CCc1ccccc1)C(=O)CN(CCN)C(=O)CN(CCc1ccccc1)C(=O)CN(CCc1ccccc1)C(=O)CNCCN [Compound 22] |
| 3.9 |  |  | CCCCCCCCCCN(CC(N)=O)C(=O)CN(CCCCCCCCCC)C(=O)CN(CCCCCCCCCC)C(=O)CN(CCCCCCCCCC)C(=O)CN(CCCCCCCCCC)C(=O)CN(CCCCCCCCCC)C(=O)CN(CCCCCCCCCC)C(=O)CN(CCc1ccccc1)C(=O)CN(CCc1ccccc1)C(=O)CN(CCN)C(=O)CN(CCc1ccccc1)C(=O)CN(CCc1ccccc1)C(=O)CN(CCN)C(=O)CN(CCc1ccccc1)C(=O)CN(CCc1ccccc1)C(=O)CNCCN [Compound 23] |
| 8.4 | 773.3 | 0.021 | CCCCCCCCCCN(CC(N)=O)C(=O)CN(CCCCCCCCCC)C(=O)CN(CCCCCCCCCC)C(=O)CN(CCCCCCCCCC)C(=O)CN(CCc1ccccc1)C(=O)CN(CCc1ccccc1)C(=O)CN(CCNC)C(=O)CN(CCc1ccccc1)C(=O)CN(CCc1ccccc1)C(=O)CN(CCNC)C(=O)CN(CCc1ccccc1)C(=O)CN(CCc1ccccc1)C(=O)CNCCNC [Compound 25] |
| 35.7 |  |  | CCCCCCCCCCN(CC(N)=O)C(=O)CN(CCCCCCCCCC)C(=O)CN(CCCCCCCCCC)C(=O)CN(CCCCCCCCCC)C(=O)CN(CCc1ccccc1)C(=O)CN(CCc1ccccc1)C(=O)CN(CCNC)C(=O)CN(CCc1ccccc1)C(=O)CN(CCc1ccccc1)C(=O)CN(CCNC)C(=O)CN(CCc1ccccc1)C(=O)CN(CCc1ccccc1)C(=O)CN(CCNC)C(=O)CN(CCc1ccccc1)C(=O)CN(CCc1ccccc1)C(=O)CNCCNC [Compound 26] |
